Data published in patent US12195476B2, “Synthesis method of furoimidazopyridine compound, crystal form of furoimidazopyridine compound, and crystal form of salt thereof” (HANGZHOU HIGHLIGHTLL PHARMACEUTICAL CO., LTD, priority 2019, dated 2025).

Experiments:
[1] = target: T1, TYK2 (Homo sapiens, UniProt P29597); assay: TYK2 biochemical test (33P-ATP filter binding kinase assay, Reaction Biology Corp); settings: 2 hours at room temperature
T1 construct: purchased Reaction Biology Corp, Malvern, PA (contract test)
Procedure: An appropriate amount of a compound of formula I was weighed for TYK2 biochemical test.
The test was conducted by Reaction Biology Corp, Malvern, PA (Anastassiadis et al. Nat Biotechnol. 2011; 29(11):1039-45). The step is briefly described as follows.
Basic reaction buffer: 20 mM Hepes (pH 7.5), 10 mM MgCl2, 1 mM EGTA, 0.02% Brij35, 0.02 mg/ml BSA, 0.1 mM Na3VO4, 2 mM DTT and 1% DMSO. The required cofactor was added to each kinase reaction respectively.
• 1. Preparing the designated substrate in the newly prepared basic reaction buffer; • 2. Transferring the required cofactor to the above matrix solution; • 3. Transferring the designated kinase to the substrate solution and mixing well slightly; • 4. Transferring a compound of formula I in DMSO to the kinase reaction mixture with Acoustic technique (Echo550; nanoliter range), culturing for 20 minutes at room temperature; • 5. Introducing ^33P-ATP (specific activity: 10 μCi/μl) to the reaction mixture to trigger a reaction; • 6. Culturing at room temperature and conducting a kinase reaction for 2 hours; • 7. Plotting the reaction on P81 ion exchange paper; • 8. Testing the kinase activity with a filter binding assay.

[2] = target: JAK1 (Homo sapiens, UniProt P23458); settings: result in words; cited from earlier work
[3] = system: IL-6-induced STAT3 phosphorylation; settings: result in words; cited from earlier work
[4] = system: thrombopoietin-induced STAT3 phosphorylation; settings: result in words; cited from earlier work

T1 sequence (P29597 whole entry): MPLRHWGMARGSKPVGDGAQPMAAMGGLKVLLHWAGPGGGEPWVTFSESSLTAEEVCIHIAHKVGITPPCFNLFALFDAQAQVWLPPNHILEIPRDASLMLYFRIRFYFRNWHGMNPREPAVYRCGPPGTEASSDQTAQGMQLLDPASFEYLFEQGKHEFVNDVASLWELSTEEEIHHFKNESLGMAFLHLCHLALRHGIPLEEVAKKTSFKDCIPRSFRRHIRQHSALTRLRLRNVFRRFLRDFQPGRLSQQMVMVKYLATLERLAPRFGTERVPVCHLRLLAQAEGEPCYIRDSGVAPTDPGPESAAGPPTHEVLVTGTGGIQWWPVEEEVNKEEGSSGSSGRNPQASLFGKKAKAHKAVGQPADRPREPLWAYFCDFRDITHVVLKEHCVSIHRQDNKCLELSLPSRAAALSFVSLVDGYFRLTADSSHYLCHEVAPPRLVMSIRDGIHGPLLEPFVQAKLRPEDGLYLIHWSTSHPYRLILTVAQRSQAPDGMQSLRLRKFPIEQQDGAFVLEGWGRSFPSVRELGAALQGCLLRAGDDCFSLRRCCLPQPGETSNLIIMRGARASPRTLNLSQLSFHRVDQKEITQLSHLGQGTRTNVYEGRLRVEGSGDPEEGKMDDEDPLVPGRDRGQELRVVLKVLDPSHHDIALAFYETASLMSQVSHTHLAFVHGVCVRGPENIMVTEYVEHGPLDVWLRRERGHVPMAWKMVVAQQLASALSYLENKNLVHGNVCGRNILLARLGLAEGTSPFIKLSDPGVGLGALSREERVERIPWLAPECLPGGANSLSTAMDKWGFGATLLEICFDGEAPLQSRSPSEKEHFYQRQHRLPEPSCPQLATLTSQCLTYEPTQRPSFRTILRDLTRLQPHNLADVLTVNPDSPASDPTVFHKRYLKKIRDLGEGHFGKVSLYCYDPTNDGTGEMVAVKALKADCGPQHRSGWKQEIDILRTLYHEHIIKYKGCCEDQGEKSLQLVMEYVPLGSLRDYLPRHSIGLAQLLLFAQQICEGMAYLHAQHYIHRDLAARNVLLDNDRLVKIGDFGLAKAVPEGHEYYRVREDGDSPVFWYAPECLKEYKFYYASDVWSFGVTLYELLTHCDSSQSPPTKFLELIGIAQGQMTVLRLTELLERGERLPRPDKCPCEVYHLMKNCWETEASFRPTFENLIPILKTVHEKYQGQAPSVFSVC
JAK1, sequence (P23458 whole entry): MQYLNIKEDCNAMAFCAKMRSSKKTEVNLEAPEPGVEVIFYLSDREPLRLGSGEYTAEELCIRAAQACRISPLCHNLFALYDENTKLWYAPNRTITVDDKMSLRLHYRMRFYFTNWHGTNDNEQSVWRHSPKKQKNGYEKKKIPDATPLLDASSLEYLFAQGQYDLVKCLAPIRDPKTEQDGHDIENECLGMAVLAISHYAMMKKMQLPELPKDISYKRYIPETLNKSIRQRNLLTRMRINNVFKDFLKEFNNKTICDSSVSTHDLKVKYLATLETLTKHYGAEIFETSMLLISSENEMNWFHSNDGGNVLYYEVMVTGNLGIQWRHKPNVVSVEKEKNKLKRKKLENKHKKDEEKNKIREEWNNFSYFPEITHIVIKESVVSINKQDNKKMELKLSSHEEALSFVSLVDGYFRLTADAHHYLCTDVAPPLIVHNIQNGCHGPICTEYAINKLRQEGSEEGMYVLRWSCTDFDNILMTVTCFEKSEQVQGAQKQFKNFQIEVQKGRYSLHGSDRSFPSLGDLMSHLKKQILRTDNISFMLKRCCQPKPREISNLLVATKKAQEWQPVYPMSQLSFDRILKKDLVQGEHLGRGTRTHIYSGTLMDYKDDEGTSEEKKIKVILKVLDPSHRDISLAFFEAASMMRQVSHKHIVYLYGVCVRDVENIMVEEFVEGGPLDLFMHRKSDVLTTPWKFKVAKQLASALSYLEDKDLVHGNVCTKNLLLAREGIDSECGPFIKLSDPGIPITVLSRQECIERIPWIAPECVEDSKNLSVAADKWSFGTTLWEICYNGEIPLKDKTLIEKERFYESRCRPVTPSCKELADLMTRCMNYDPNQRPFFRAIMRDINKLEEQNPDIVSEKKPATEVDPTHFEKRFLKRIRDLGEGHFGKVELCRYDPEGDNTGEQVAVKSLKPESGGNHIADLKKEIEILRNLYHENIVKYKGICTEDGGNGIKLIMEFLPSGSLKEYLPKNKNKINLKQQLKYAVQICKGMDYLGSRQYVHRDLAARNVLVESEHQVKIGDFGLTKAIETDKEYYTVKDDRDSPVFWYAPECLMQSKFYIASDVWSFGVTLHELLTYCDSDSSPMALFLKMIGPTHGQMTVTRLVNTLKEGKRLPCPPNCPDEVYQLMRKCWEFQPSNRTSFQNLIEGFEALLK

IC50 [1]: < 0.01 µM
SMILES: C[C@@H](O)c1nc2cnc3ccoc3c2n1[C@H]1CC[C@H](CC#N)OC1 [compound I, 2-[(2R,5S)-5-[2-[(R)-1-hydroxyethyl]furo[3,2-b]imidazo[4,5-d]pyridin-1-yl]tetrahydropyran-2-yl]acetonitrile]
JAK1 inhibition [2]: potent and selective JAK1 inhibitor | inhibition of IL-6-induced STAT3 phosphorylation [3]: demonstrated selective inhibition | inhibition of thrombopoietin-induced STAT3 phosphorylation [4]: did not show selective inhibition
